Measured values: ChEMBL document CHEMBL1201862, “PubChem BioAssay data set” (2004)
Activity calls are given as the source filed them.

How the values were obtained:
[1] = molecular target: NAD-dependent protein deacylase sirtuin-5, mitochondrial (Homo sapiens, UniProt Q9NXA8); test: SIRT5 desuccinylase inhibitors, dose response, biochemical, fluorescence imaging, cherry-pick, set 5 (AID 720591);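 also: desuccinylation of succinyl peptide AMC substrate read as fluorescence after trypsin release; potency of inhibitors that lower fluorescence and may act on trypsin instead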
[2] = molecular target: T1, Estrogen receptor (Homo sapiens, UniProt P03372);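 also: potency for inhibiting coactivator peptide recruitment to the receptor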
T1 sequence (P03372 whole entry): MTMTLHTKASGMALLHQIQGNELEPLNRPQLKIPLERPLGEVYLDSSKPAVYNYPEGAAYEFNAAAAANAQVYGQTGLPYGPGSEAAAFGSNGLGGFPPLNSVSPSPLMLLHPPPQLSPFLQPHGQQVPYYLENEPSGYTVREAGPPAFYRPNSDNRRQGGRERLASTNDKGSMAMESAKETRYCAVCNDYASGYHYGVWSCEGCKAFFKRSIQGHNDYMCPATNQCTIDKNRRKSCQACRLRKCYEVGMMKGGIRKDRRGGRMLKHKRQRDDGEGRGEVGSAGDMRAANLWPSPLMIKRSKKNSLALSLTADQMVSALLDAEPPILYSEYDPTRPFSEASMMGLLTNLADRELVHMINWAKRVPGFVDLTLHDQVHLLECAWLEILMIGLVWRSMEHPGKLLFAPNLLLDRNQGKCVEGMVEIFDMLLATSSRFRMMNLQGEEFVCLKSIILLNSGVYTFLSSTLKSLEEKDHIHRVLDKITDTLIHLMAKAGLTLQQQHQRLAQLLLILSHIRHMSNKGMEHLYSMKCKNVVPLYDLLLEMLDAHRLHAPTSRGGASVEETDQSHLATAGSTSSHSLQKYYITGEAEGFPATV

[3] = molecular target: T2, Aspartyl aminopeptidase (Plasmodium falciparum 3D7, UniProt Q8I2J3); test: Counterscreen for inhibitors of M1 and M17 aminopeptidases: QFRET-based biochemical high throughput dose response assay for inhibitors of the Plasmodium falciparum M18 Aspartyl Aminopeptidase (PFM18AAP). [Related PubChem assays: 1619 (Screening assay (M17LAP inhibitors).), 1445 (Screening assay (M1AAP inhibitors).)]
T2 sequence (Q8I2J3 whole entry): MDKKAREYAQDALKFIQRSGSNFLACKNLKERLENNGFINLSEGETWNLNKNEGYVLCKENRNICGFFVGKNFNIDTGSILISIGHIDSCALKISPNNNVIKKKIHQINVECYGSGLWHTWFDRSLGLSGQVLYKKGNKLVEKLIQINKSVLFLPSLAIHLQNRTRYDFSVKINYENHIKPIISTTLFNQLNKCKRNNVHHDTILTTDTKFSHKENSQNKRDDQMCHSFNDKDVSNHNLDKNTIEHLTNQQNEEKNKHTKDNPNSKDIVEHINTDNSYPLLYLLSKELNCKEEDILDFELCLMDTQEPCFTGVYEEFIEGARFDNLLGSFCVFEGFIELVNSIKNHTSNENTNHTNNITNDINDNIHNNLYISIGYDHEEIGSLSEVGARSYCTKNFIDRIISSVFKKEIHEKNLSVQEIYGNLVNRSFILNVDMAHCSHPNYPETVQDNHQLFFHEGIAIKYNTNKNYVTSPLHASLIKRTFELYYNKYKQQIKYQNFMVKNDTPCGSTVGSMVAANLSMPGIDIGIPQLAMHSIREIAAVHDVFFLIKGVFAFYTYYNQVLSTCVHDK

[4] = molecular target: Procathepsin L (Homo sapiens, UniProt P07711); test: cathepsin L inhibitors, dose response, counter-screen for M1/M17 aminopeptidase inhibitor project, biochemical, QFRET, 1536-well (AID 2214)
[5] = molecular target: T3, Leucine aminopeptidase (Plasmodium falciparum 3D7, UniProt Q8IL11); test: P. falciparum M17LAP inhibitors, primary screen, biochemical, fluorogenic H-Leu-NHMec substrate, 1536-well (AID 1619); type: functional
T3 sequence (Q8IL11 whole entry): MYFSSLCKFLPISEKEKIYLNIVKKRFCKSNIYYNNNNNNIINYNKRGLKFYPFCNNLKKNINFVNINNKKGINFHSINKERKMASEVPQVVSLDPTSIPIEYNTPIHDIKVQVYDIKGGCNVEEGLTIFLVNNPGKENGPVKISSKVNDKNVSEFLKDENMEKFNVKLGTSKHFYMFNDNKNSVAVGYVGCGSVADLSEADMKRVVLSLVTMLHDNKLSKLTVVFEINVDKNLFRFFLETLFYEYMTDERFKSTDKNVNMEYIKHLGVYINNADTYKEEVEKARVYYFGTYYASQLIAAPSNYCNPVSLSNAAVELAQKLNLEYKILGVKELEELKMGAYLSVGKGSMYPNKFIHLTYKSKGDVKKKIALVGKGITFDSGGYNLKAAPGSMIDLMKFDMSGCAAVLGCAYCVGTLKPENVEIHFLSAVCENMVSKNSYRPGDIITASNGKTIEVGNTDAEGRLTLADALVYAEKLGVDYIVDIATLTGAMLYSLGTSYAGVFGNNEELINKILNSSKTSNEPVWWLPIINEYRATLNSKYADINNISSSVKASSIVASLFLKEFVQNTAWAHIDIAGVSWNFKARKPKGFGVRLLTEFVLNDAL

[6] = molecular target: T4, Aminopeptidase N (Plasmodium falciparum FcB1/Columbia, UniProt O96935); test: P. falciparum M1AAP inhibitors, biochemical, fluorogenic H-Leu-NHMec substrate, 1536-well (AID 1445); set-up: species or system Plasmodium falciparum 3D7, 3D7
T4 sequence (O96935 whole entry): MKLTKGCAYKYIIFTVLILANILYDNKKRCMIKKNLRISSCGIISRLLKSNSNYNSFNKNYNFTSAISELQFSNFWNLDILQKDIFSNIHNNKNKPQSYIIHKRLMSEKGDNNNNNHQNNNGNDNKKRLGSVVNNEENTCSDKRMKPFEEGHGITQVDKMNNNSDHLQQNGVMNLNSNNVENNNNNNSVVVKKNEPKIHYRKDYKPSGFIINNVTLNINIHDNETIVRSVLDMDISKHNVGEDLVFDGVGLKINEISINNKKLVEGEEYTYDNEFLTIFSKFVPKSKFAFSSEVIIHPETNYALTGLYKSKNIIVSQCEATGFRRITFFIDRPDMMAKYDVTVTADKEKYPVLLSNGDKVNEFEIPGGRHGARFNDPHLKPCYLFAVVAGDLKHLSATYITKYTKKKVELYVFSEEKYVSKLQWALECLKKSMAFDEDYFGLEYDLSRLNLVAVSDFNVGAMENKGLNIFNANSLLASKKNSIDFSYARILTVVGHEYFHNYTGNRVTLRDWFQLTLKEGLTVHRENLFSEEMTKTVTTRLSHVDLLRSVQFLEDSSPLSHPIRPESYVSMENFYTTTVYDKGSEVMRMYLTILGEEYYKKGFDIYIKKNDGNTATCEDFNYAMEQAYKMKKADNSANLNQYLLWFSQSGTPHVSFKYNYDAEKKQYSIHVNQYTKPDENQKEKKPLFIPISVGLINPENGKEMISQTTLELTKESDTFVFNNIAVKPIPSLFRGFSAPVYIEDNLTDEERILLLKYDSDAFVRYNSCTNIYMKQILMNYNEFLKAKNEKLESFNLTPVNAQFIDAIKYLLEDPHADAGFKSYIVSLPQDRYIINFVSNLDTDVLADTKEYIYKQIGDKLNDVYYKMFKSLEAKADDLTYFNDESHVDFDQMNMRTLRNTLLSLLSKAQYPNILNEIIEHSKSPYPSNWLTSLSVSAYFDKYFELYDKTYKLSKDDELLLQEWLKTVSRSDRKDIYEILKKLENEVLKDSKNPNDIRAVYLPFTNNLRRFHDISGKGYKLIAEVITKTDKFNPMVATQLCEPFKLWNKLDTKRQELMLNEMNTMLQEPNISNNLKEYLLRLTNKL

[7] = P. falciparum Dd2 growth inhibitors, dose response, SYBR Green, cherry-picked samples (AID 1159567); type: functional, cell-based
[8] = HepG2 cell cytotoxicity, dose response, cytotoxicity control, cherry-picked samples (AID 1159577); type: functional, cell-based
[9] = molecular target: Cytochrome P450 2D6 (Homo sapiens, UniProt P10635); test: qHTS Assay for Inhibitors and Substrates of Cytochrome P450 2D6. [Related pubchem assays: 410 ]; type: ADME; settings: read-out: Potency
[10] = molecular target: Neurotensin receptor type 1 (Homo sapiens, UniProt P30989); type: functional;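 also: Image-based confirmatory dose-response assay measuring agonist activity at NTR1; NTR1-expressing U2OS osteosarcoma cells imaged for beta-arrestin GFP spot formation; agonist potency where compounds increase beta-arrestin recruitment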
[11] = cytotoxicity toward NIH3T3 fibroblasts, dose response, counter-screen, cell-based, ATP luminescence, mouse fibroblasts (AID 2010); type: functional;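 also: cells exposed to compound for about 90 hours before reading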
[12] = inhibitors of intracellular T. cruzi replication, confirmation, NIH3T3 host cells, beta-gal luminescence (AID 2044); type: functional, cell-based;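 also: intracellular parasites grown in NIH/3T3 mouse fibroblasts as host cells; luminescent beta-galactosidase reporter signal from transgenic T. cruzi replicating inside host cells; inhibitors lower the luminescence signal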
[13] = cells

Procathepsin L, sequence (P07711 whole entry): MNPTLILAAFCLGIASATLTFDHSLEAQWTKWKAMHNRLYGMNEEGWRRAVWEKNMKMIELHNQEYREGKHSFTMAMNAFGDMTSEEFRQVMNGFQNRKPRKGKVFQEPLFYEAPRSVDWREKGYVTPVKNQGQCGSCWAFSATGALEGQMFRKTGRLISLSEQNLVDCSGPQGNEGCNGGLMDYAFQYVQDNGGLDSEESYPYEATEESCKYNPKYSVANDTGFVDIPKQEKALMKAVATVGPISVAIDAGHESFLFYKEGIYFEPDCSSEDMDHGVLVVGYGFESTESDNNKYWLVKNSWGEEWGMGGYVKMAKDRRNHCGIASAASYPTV
NAD-dependent protein deacylase sirtuin-5, mitochondrial, sequence (Q9NXA8 whole entry): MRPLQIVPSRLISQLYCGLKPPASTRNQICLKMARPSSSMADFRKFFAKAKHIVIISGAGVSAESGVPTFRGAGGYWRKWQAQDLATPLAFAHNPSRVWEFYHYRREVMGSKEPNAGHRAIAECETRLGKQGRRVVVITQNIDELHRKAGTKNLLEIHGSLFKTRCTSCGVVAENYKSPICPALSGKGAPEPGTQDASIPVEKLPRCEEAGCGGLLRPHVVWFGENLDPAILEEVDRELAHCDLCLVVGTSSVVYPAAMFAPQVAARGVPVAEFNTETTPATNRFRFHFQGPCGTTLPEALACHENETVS
Cytochrome P450 2D6, sequence (P10635 whole entry): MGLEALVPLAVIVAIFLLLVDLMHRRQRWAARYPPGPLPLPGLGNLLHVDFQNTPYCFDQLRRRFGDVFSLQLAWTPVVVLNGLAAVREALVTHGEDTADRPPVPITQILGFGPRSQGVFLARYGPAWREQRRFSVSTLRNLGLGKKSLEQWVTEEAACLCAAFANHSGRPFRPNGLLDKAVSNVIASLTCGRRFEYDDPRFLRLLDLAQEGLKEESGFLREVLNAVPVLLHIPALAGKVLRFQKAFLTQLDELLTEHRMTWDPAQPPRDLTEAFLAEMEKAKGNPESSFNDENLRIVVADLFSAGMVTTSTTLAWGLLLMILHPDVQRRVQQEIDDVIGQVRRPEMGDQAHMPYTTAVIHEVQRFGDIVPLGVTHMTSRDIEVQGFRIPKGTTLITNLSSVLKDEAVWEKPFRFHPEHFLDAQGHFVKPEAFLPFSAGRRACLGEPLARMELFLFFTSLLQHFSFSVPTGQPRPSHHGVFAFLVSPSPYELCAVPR
Neurotensin receptor type 1, sequence (P30989 whole entry): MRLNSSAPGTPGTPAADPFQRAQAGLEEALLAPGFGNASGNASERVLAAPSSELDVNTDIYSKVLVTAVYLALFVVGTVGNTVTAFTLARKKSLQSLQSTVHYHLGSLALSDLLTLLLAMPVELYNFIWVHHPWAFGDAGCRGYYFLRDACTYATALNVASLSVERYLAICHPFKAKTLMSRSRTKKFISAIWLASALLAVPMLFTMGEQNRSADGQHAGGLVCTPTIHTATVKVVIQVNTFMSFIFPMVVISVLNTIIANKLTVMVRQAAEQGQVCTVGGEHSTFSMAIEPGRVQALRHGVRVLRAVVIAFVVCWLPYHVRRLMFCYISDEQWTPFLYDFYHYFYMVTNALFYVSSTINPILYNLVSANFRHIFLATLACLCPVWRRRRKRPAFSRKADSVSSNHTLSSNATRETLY

For `CC(C(=O)NC(N)=O)N1C(=O)NC(c2ccccc2)(c2ccccc2)C1=O` (configuration not stated), which AC50 [1] is on record?
The AC50 was > 30 µM (inactive).

For `COc1ccc2cc3c(N)nn(C(=O)Cc4ccc(Cl)cc4)c3nc2c1`, which IC50 [2] is on record?
Its IC50 is 24.8 µM (active).

With `Cc1ccc(NC(=O)CSc2nc(O)c3c(n2)CCC3)cc1C` as the compound, how does the IC50 [3] read?
Its IC50 is > 73.5 µM (not active).

And the IC50 [4]?
Its IC50 is > 59.6 µM (not active).

What about the IC50 [5] of the same compound?
The IC50 was 5.9 µM (active).

For `O=C(Nn1c(C2CCC2)nc2ccccc2c1=O)c1cccs1`, which IC50 [3] is on record?
The IC50 was > 73.5 µM (not active).

And the IC50 [4]?
Its IC50 is > 59.6 µM (not active).

What about the IC50 [6] of the same compound?
Its IC50 is 8.54 µM (active).

What does the source list for `N#Cc1ccc(-c2ccc([C@@H]3[C@@H]4CN(Cc5ccccc5F)C[C@H]3N4)cc2)cc1`?
AC50 [7]: 1.88 µM (active); AC50 [8]: 9.39 µM (active)

For `Cc1ccc(C(=O)[C@@H]2[C@@H]3[C@@H](C(=O)[C@@H]4OC[C@H]3O4)[C@@H]3C=Cc4ccccc4N23)cc1`, which AC50 [9] is on record?
The AC50 was 20 µM (inconclusive).

With `COC(=O)c1ccc(/C=C/C(=O)OCC(=O)Nc2sccc2C(N)=O)cc1` as the compound, how does the EC50 [10] read?
Its EC50 is 18.9 µM (active).

Which results are given for `Cc1ccc(S(=O)(=O)CC(=O)N(CCCN(C)C)c2nc3ccc(C)cc3s2)cc1`?
EC50 [11]: > 30 µM (not active); EC50 [12]: < 0.1 µM (active); EC50 [13]: 0.06 µM (active)

Which AC50 [7] does the source give for `COc1cccc(CN2C[C@@H]3N[C@H](C2)[C@@H]3c2ccc(-c3ccncc3)cc2)c1` here?
Its AC50 is 4.63 µM (active).

What about the AC50 [8] of the same compound?
Its AC50 is > 39 µM (inactive).
